One assay has as its target MetRS (T. brucei) (Trypanosoma brucei brucei, UniProt Q38C91). Nature of the assay: MetRS (T. brucei) ATP depletion assay using Kinase-Glo. Format: biochemical. On the technique in general: In Kinase-Glo more light means more ATP remaining.
In the next assay the test system is T. brucei. Nature of the assay: Growth inhibition assay of T. brucei cell cultures (Alamar Blue, 48 h). Format: cell-based.
Where [1] appears, read: Trypanosoma brucei; read-out: B) T. brucei EC50.

Values joined by “and” are separate entries in the source; they are usually repeats but may differ in a detail not shown here. Equal entries are not always repeated. Where two headings read alike, the source gives them in different places.

MetRS (T. brucei), sequence (Q38C91 entry or part of it): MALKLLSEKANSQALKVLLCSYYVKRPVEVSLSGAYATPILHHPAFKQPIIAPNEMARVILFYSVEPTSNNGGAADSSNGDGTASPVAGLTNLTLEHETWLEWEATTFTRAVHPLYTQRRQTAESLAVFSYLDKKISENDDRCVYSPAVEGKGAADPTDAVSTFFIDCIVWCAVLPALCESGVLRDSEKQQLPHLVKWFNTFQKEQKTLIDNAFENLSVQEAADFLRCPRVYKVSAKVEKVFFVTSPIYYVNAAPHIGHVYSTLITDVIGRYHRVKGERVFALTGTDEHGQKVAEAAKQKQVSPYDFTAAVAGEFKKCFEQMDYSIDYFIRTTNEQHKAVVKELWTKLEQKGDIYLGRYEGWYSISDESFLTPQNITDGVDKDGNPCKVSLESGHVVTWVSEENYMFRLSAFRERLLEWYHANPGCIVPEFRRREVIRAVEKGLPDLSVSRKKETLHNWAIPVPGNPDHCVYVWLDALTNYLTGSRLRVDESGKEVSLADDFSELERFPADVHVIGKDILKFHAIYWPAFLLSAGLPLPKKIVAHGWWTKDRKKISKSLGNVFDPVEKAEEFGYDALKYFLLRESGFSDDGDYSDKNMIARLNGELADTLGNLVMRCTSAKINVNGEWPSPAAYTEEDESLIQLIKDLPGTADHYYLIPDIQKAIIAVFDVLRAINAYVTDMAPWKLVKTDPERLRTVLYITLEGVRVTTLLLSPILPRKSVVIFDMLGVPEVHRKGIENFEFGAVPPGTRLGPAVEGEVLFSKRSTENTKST

For orientation: IC50 means the concentration that gives 50% inhibition. A word on the EC50: it is the concentration at which the effect is half-maximal. As for `O=C(CCNCc1cc(Cl)cc(Cl)c1)Nc1nc2ncccc2[nH]1` [Compound 1576, 3-(3,5-dichlorobenzylamino)-N-(3H-imidazo[4,5-b]pyridin-2-yl)propanamide], it took 0.109 µM to reach half-maximal inhibition against MetRS (T. brucei) (IC50). The concentration for a half-maximal effect (EC50) in the assay with T. brucei (setting [1]) is 0.403 µM.

For `CC(C)(CNCc1cc(Cl)cc(Cl)c1)CNc1nc2cccnc2[nH]1` [Compound 1641, N1-(3,5-dichlorobenzyl)-N3-(1H-imidazo[4,5-b]pyridin-2-yl)-2,2-dimethylpropane-1,3-diamine], the IC50 at MetRS (T. brucei) was < 0.049 µM and 0.138 µM. Further, the results for the EC50 in the assay on T. brucei (setting [1]) and in the assay on T. brucei (read-out: B) T. brucei EC50) were 7.65 µM and 8.35 µM, respectively.

Turning to `O=C(COc1ccc(Cl)cc1Cl)NCc1nc2ccccc2[nH]1` [Compound 1671, N-(1H-1,3-benzodiazol-2-ylmethyl)-2-(2,4-dichlorophenoxy)acetamide], inhibition against MetRS (T. brucei) was half-maximal at 1.27 µM (IC50). In addition, the EC50 in the assay with T. brucei (setting [1]) was over 20 µM.

`O=C(COc1ccc(Cl)cc1Cl)NCc1cc2ccccc2[nH]1` [Compound 1674, 2-(2,4-dichlorophenoxy)-N-(1H-indol-2-ylmethyl)acetamide]: on MetRS (T. brucei), the IC50 is 23 µM. The EC50 in the assay with T. brucei (setting [1]) is over 20 µM.

The compound `O=C(COc1ccc(Cl)cc1Cl)NCCc1nc2ccccc2[nH]1` [Compound 1675, N-[2-(1H-1,3-benzodiazol-2-yl)ethyl]-2-(2,4-dichlorophenoxy)acetamide] registered a 50% inhibitory concentration (IC50) against MetRS (T. brucei) of 8.23 µM. Further, in the assay with T. brucei (setting [1]), the EC50 was over 20 µM. As for `O=C(NCc1nc2cccnc2[nH]1)OCc1ccccc1` [Compound 1699, benzyl N-{3H-imidazo[4,5-b]pyridin-2-ylmethyl}carbamate], the half-maximal inhibitory concentration (IC50) against MetRS (T. brucei) was determined as 13.1 µM. Also, in the assay on T. brucei (setting [1]), the concentration giving a half-maximal response (EC50) was over 10 µM.

`O=C(NCCc1ccc(Cl)cc1Cl)NCc1nc2ccccc2[nH]1` [Compound 1702, 1-((1H-benzo[d]imidazol-2-yl)methyl)-3-(2,4-dichlorophenethyl)urea]: the IC50 against MetRS (T. brucei) was 0.009 µM and 0.011 µM. Moreover, the EC50 in the assay with T. brucei (setting [1]) was 4.97 µM. In turn, `N[C@@H](CC(=O)NCc1nc2ccccc2[nH]1)Cc1ccc(F)cc1` [Compound 1703, (3R)-3-amino-N-(1H-1,3-benzodiazol-2-ylmethyl)-4-(4-fluorophenyl)butanamide] displayed an IC50 at MetRS (T. brucei) of 12.1 µM. In the assay on T. brucei (setting [1]), the EC50 is over 10 µM.

Compound `O=C(CCOc1ccc(Cl)cc1Cl)NCc1nc2cccnc2[nH]1` [Compound 1704, 3-(2,4-dichlorophenoxy)-N-{3H-imidazo[4,5-b]pyridin-2-ylmethyl}propanamide] registered an IC50 on MetRS (T. brucei) of 0.28 µM. Also, the 50% effective concentration (EC50) with T. brucei (setting [1]) was 8.61 µM. At MetRS (T. brucei), `N[C@H](CC(=O)NCc1nc2ccccc2[nH]1)Cc1ccc(Cl)cc1Cl` [Compound 1726, (3S)-3-amino-N-(1H-1,3-benzodiazol-2-ylmethyl)-4-(2,4-dichlorophenyl)butanamide] had an IC50 of 2.38 µM. The concentration giving a half-maximal response (EC50) with T. brucei (setting [1]) is 8.02 µM. On MetRS (T. brucei), `CN(Cc1nc2ccccc2[nH]1)C(=O)CCOc1ccc(Cl)cc1Cl` [Compound 1727, N-(1H-1,3-benzodiazol-2-ylmethyl)-3-(2,4-dichlorophenoxy)-N-methylpropanamide] showed an IC50 of 5.09 µM. Further, the EC50 with T. brucei (setting [1]) was over 20 µM.

For `CN(Cc1nc2ccccc2[nH]1)C(=O)OCCc1ccc(Cl)cc1Cl` [Compound 1728, 2-(2,4-dichlorophenyl)ethyl N-(1H-1,3-benzodiazol-2-ylmethyl)-N-methylcarbamate], the IC50 on MetRS (T. brucei) is over 10 µM. For the same compound, in the assay on T. brucei (setting [1]), the concentration giving a half-maximal response (EC50) is over 20 µM.

`O=C(/C=C\Oc1ccc(Cl)cc1Cl)NCc1nc2ccccc2[nH]1` [Compound 1730, (Z)—N-((1H-benzo[d]imidazol-2-yl)methyl)-3-(2,4-dichlorophenoxy)acrylamide]: the IC50 against MetRS (T. brucei) is 0.142 µM. For the same compound, the concentration for a half-maximal effect (EC50) in the assay with T. brucei (setting [1]) amounted to 0.723 µM.

Turning to `O=C(Cc1ccc(Cl)cc1Cl)N1CCCC(c2nc3ccccc3[nH]2)C1` (stereo not shown) [Compound 1731, 1-(3-(1H-benzo[d]imidazol-2-yl)piperidin-1-yl)-2-(2,4-dichlorophenyl) ethanone], on MetRS (T. brucei), the IC50 stood at 5 µM. In addition, the concentration giving a half-maximal response (EC50) in the assay on T. brucei (setting [1]) was over 20 µM. Compound `O=C(Cc1cc(Cl)cc(Cl)c1)N1CCCC(c2nc3ccccc3[nH]2)C1` (stereo not shown) [Compound 1732, 1-(3-(1H-benzo[d]imidazol-2-yl)piperidin-1-yl)-2-(3,5-dichlorophenyl)ethanone] had a half-maximal inhibitory concentration (IC50) against MetRS (T. brucei) of 0.288 µM. Also, in the assay with T. brucei (setting [1]), the EC50 was over 5 µM. On MetRS (T. brucei), `O=C(Cc1cc(Cl)cc(Cl)c1)N1CCCC(c2nc3c(Cl)cccc3[nH]2)C1` (stereo not shown) [Compound 1733, 1-(3-(4-chloro-1H-benzo[d]imidazol-2-yl)piperidin-1-yl)-2-(3,5-dichlorophenyl) ethanone] yielded a 50% inhibitory concentration (IC50) of 0.926 µM. Moreover, the half-maximal effective concentration (EC50) with T. brucei (setting [1]) is 8.81 µM. `O=C1CN(Cc2ccccc2Cl)CCN1Cc1nc2ccccc2[nH]1` [Compound 1735, 1-(1H-1,3-benzodiazol-2-ylmethyl)-4-[(2-chlorophenyl)methyl]piperazin-2-one] registered a half-maximal inhibitory concentration (IC50) against MetRS (T. brucei) of over 10 µM. Also, the EC50 in the assay on T. brucei (setting [1]) was over 20 µM.

In turn, `O=C1CN(Cc2cccc(Cl)c2)CCN1Cc1nc2ccccc2[nH]1` [Compound 1736, 1-((1H-benzo[d]imidazol-2-yl)methyl)-4-(3-chlorobenzyl)piperazin-2-one] displayed a concentration for half-maximal inhibition (IC50) at MetRS (T. brucei) of over 10 µM. Also, the EC50 in the assay on T. brucei (setting [1]) is over 20 µM. Compound `O=C(CCOc1ccc(Cl)cc1Cl)NC1(c2nc3ccccc3[nH]2)CC1` [Compound 1738, N-(1-(1H-benzo[d]imidazol-2-yl)cyclopropyl)-3-(2,4-dichlorophenoxy)propanamide] had a half-maximal inhibitory concentration (IC50) at MetRS (T. brucei) of over 10 µM. In addition, in the assay with T. brucei (setting [1]), the half-maximal effective concentration (EC50) is over 20 µM.

For `O=C(NCCc1ccc(Cl)cc1Cl)OCc1nc2ccccc2[nH]1` [Compound 1739, [2-(2,4-Dichloro-phenyl)-ethyl]-carbamic acid 1H-benzoimidazol-2-ylmethyl ester], 1.45 µM corresponded to half-maximal inhibition against MetRS (T. brucei) (IC50). Besides, the half-maximal effective concentration (EC50) in the assay on T. brucei (setting [1]) was over 10 µM.

`O=C(CCOc1ccc(Cl)cc1Cl)NCc1nc2ccc(F)cc2[nH]1` [Compound 1740, 3-(2,4-dichlorophenoxy)-N-((6-fluoro-1H-benzo[d]imidazol-2-yl)methyl)propanamide] had an IC50 against MetRS (T. brucei) of 0.549 µM. In the assay with T. brucei (setting [1]), the EC50 is over 10 µM. At MetRS (T. brucei), `O=C(NCc1nc2ccc(F)cc2[nH]1)OCCc1ccc(Cl)cc1Cl` [Compound 1741, (6-Fluoro-1H-benzoimidazol-2-ylmethyl)-carbamic acid 2-(2,4-dichloro-phenyl)-ethyl ester] yielded an IC50 of 0.132 µM. In addition, the EC50 with T. brucei (setting [1]) came out at 4.22 µM. The compound `O=C(Cc1cc(Cl)cc(Cl)c1)N1CCCC(c2nc3cc(F)ccc3[nH]2)C1` (stereo not shown) [Compound 1744, 2-(3,5-dichlorophenyl)-1-(3-(5-fluoro-1H-benzo[d]imidazol-2-yl)piperidin-1-yl)ethanone] yielded an IC50 at MetRS (T. brucei) of 0.184 µM. Besides, in the assay with T. brucei (setting [1]), the 50% effective concentration (EC50) was found to be 3.26 µM. In turn, `O=C(Cc1cc(Cl)cc(Cl)c1)N1CCCC(c2nc3cc(Cl)c(Cl)cc3[nH]2)C1` (stereo not shown) [Compound 1745, 1-(3-(5,6-dichloro-1H-benzo[d]imidazol-2-yl)piperidin-1-yl)-2-(3,5-dichlorophenyl)ethanone] had an IC50 at MetRS (T. brucei) of 0.812 µM. Moreover, the 50% effective concentration (EC50) with T. brucei (setting [1]) stood at 4.6 µM. With `O=C(Cc1cc(Cl)cc(Cl)c1)N1CCCC(c2nc3cc(Cl)c(F)cc3[nH]2)C1` (stereo not shown) [Compound 1746, 1-(3-(5-chloro-6-fluoro-1H-benzo[d]imidazol-2-yl)piperidin-1-yl)-2-(3,5-dichlorophenyl)ethanone], the IC50 at MetRS (T. brucei) was found to be 0.138 µM. In addition, the EC50 in the assay on T. brucei (setting [1]) was determined as 3.33 µM.

`O=C1CN(Cc2ccc(Cl)cc2Cl)CCN1Cc1nc2ccccc2[nH]1` [Compound 1747, 1-((1H-benzo[d]imidazol-2-yl)methyl)-4-(2,4-dichlorobenzyl)piperazin-2-one] registered an IC50 against MetRS (T. brucei) of over 10 µM. Further, in the assay with T. brucei (setting [1]), the concentration giving a half-maximal response (EC50) is over 10 µM. `O=C1CN(Cc2cc(Cl)cc(Cl)c2)CCN1Cc1nc2ccccc2[nH]1` [Compound 1748, 1-((1H-benzo[d]imidazol-2-yl)methyl)-4-(3,5-dichlorobenzyl)piperazin-2-one]: the IC50 on MetRS (T. brucei) is over 10 µM. For the same compound, the EC50 in the assay with T. brucei (setting [1]) was over 10 µM. At MetRS (T. brucei), `Clc1ccc(Cn2cc(Cc3nc4ccccc4[nH]3)nn2)c(Cl)c1` [Compound 1752, 2-((1-(2,4-dichlorobenzyl)-1H-1,2,3-triazol-4-yl)methyl)-1H-benzo[d]imidazole] gave an IC50 of 1.36 µM. For the same compound, the concentration for a half-maximal effect (EC50) with T. brucei (setting [1]) was over 10 µM. Compound `COC(=O)[C@H](Cc1ccc(Cl)cc1Cl)NC(=O)NCc1nc2ccccc2[nH]1` [Compound 1755, methyl (2S)-2-{[(1H-1,3-benzodiazol-2-ylmethyl)carbamoyl]amino}-3-(2,4-dichlorophenyl)propanoate] came in with an IC50 against MetRS (T. brucei) of 1.39 µM. For the same compound, the EC50 in the assay on T. brucei (setting [1]) is over 10 µM. In turn, `O=C(Cc1cc2cc(Cl)cc(Cl)c2o1)NCc1nc2ccccc2[nH]1` [Compound 1756, N-((1H-benzo[d]imidazol-2-yl)methyl)-2-(5,7-dichlorobenzofuran-2-yl)acetamide] registered an IC50 on MetRS (T. brucei) of 3.72 µM. Besides, the concentration for a half-maximal effect (EC50) in the assay with T. brucei (setting [1]) was over 10 µM. With `Clc1cc(Cl)cc(CCN2CCCC(c3nc4nc(Cl)ccc4[nH]3)C2)c1` (stereo not shown) [Compound 1812, 5-chloro-2-(1-(3,5-dichlorophenethyl)piperidin-3-yl)-1H-imidazo[4,5-b]pyridine], the EC50 in the assay on T. brucei (setting [1]) turned out to be 3.76 µM.

Regarding `O=C(Nc1cc(Cl)cc(Cl)c1)[C@H]1CCCN(c2nc3nc(Cl)ccc3[nH]2)C1` [Compound 1888, (S)-1-(5-chloro-1H-imidazo[4,5-b]pyridin-2-yl)-N-(3,5-dichlorophenyl)piperidine-3-carboxamide], in the assay on T. brucei (setting [1]), the EC50 is over 20 µM. On to `O=C(N[C@H]1CCCN(c2nc3nc(Cl)ccc3[nH]2)C1)c1cc(Cl)cc(Cl)c1` [Compound 1889], for which the 50% effective concentration (EC50) in the assay with T. brucei (setting [1]) is over 20 µM. On to `O=C(CO)N(CCCNc1nc2ccc(F)nc2[nH]1)Cc1cc(Cl)cc(Cl)c1` [Compound 1973, N-(3,5-dichlorobenzyl)-N-(3-(5-fluoro-3H-imidazo[4,5-b]pyridin-2-ylamino)propyl)-2-hydroxyacetamide], for which the half-maximal inhibitory concentration (IC50) on MetRS (T. brucei) came to 0.011 µM. `NC(=O)N(CCCNc1nc2ccc(F)nc2[nH]1)Cc1cc(Cl)cc(Cl)c1` [Compound 1974, 1-(3,5-dichlorobenzyl)-1-(3-(5-fluoro-3H-imidazo[4,5-b]pyridin-2-ylamino)propyl)urea] yielded an IC50 against MetRS (T. brucei) of 0.007 µM.

For the compound `Clc1cc(Cl)c2ccn(CCCNc3nc4ccc(Cl)nc4[nH]3)c2c1` [Compound 1996, 5-chloro-N-[3-(4,6-dichloro-1H-indol-1-yl)propyl]-3H-imidazo[4,5-b]pyridin-2-amine], the EC50 in the assay with T. brucei (setting [1]) amounted to 5.3 µM.
